Assay [1] relates to BaF3 (EGFR Del19/T790M/C797S). In words: Cell proliferation IC50 assay (Cell Titer GLO), BaF3 DTC cells. It is filed as cell-based. The settings on record: Mus musculus, Ba/F3 EGFR-Del19/T790M/C797S, Table 6, 72 h. Here is the method: IC50 of compounds in the present invention was determined by Cell Titer GLO reagent from Promega. The procedures are as follows:
Tumor cells were cultured in specified medium in an incubator at 37° C. and 5% CO2. The cells were passaged periodically. Cells at the logarithmic growth phase were collected for plating at a density of 2000-4000 cells/well. The next day, the compounds of the present invention were serially diluted and added to the cells, with DMSO being the negative control and the culture media without cells being the blank control. The plate was incubated in the incubator for 72 h. The cell viability assay was performed by adding the detection reagents to the cell culture media according to Cell Titer GLO reagent instructions and detecting luminescent signals on an EnVision microplate reader (PerkinElmer).
Inhibition of cell growth by the compounds of the present invention was plotted by Prism Graphpad software for statistically calculating the IC50 of the compound of the present invention.

Assay [2] relates to BaF3 (EGFR L858R/T790M/C797S). Put plainly: Cell proliferation IC50 assay (Cell Titer GLO), BaF3 LTC cells. It is filed as cell-based. The settings on record: Mus musculus, Ba/F3 EGFR, Table 6, 72 h. The gist of the method: (§1)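 Growth inhibition is measured over 72 h of continuous compound treatment in cells seeded at 2000-4000 per well.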
Background: In ATP-based viability assays light output follows the ATP content of the culture.

Assay [3] has as its system BaF3 (EGFR WT). In words: Cell proliferation IC50 assay (Cell Titer GLO), BaF3 WT cells. The format is cell-based. The settings on record: Mus musculus, Ba/F3 EGFR, Table 6, 10 ng/ml EGF, 72 h. The procedure, abridged: as §1
Assay [4] deals with A431. In words: Cell proliferation IC50 assay (Cell Titer GLO), A431 cells. It is filed as cell-based. The settings on record: Homo sapiens, A-431; Table 6; A431, 72 h; read-out: A431 IC50. The gist of the method:
as §1

Assay [5] has as its target T1, BaF3 (EGFR Del19/C797S) (Homo sapiens, UniProt P00533, C797S, cells depend on it, form not given).
T1 construct: BaF3 (EGFR Del19/C797S)|DC|RPMI1640 + 10% FBS
Put plainly: Cell proliferation IC50 assay (Cell Titer GLO), BaF3 DC cells. The settings on record: Table 6, 72 h. It is filed as cell-based, mouse. The gist of the method:
as §1

SMILES strings stand for the structures.

Broadly, the IC50 is the concentration at which inhibition is half-maximal.

T1 sequence (P00533 with tags, fused parts or gaps DEL746-750/C797S, form open): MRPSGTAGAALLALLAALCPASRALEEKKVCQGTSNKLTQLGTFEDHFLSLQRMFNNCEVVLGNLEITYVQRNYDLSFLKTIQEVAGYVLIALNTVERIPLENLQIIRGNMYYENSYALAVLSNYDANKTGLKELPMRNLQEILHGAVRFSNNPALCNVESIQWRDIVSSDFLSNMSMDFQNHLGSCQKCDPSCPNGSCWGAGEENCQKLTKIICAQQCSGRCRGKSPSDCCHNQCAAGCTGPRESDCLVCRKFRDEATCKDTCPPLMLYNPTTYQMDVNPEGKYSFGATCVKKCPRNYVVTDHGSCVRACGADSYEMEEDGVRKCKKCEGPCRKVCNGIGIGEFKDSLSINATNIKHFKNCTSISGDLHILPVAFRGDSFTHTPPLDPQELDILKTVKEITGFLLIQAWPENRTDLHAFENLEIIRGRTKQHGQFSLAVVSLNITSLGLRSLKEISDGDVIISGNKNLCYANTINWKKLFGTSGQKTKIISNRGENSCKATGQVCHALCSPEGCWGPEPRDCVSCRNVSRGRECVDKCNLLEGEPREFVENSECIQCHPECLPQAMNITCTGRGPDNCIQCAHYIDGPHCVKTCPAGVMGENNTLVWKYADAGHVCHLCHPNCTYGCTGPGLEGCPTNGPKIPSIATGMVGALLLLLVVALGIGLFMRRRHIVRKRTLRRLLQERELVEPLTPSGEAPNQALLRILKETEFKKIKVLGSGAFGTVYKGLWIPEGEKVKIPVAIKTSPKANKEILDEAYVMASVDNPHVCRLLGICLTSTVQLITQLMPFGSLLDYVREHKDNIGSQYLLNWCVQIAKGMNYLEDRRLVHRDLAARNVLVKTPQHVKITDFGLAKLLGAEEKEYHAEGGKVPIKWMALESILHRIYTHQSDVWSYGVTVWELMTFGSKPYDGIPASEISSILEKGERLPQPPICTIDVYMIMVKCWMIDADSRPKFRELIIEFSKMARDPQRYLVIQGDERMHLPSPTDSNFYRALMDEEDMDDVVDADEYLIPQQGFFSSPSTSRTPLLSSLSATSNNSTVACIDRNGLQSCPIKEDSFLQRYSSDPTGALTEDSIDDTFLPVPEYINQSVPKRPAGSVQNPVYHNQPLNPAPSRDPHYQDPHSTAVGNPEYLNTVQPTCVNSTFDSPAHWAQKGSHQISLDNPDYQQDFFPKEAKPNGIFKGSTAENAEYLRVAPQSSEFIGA

`CCc1cc(Nc2ncc(Cl)c(Nc3ccccc3P(C)(C)=O)n2)c(OC)cc1N1CCC(N2CCN(C(=O)COc3cccc4c3CN(C3CCC(=O)NC3=O)C4=O)CC2)CC1` (stereo not drawn) [Example E82]: the IC50 in assay [1] is 17 nM; in assay [2], 162 nM; in assay [3], 781 nM; in assay [4], 1780 nM.

`COc1cc(N2CCC(N3CCN(CCC#Cc4cccc5c4CN(C4CCC(=O)NC4=O)C5=O)CC3)CC2)c(C(N)=O)cc1Nc1ncc(Cl)c(Nc2ccccc2P(C)(C)=O)n1` (stereo not drawn) [Example E61]: the IC50 in assay [1] is 280 nM; in assay [2], 621 nM; in assay [5], 37.8 nM; in assay [3], more than 4000 nM; in assay [4], more than 4000 nM.

`CCc1cc(Nc2ncc(-c3cnn(C)c3)c(Nc3ccccc3P(C)(C)=O)n2)c(OC)cc1N1CCC(N2CCN([C@H]3C[C@@H](Oc4cccc5c4CN(C4CCC(=O)NC4=O)C5=O)C3)CC2)CC1` (stereo partly drawn) [Example E69]: the concentration for half-maximal inhibition (IC50) in assay [1] was 15.3 nM; in assay [2], 114 nM; in assay [5], 0.7 nM; in assay [3], 168 nM; in assay [4], 344 nM.

Consider `COc1cc2c(cc1Nc1ncc(Cl)c(Nc3ccccc3P(C)(C)=O)n1)CCN(C1CCN(CCCCOc3cccc4c3CN(C3CCC(=O)NC3=O)C4=O)CC1)C2` (stereo not drawn) [Example E86], for which the IC50 was 40.7 nM in assay [1]; 197 nM in assay [2]; 33 nM in assay [5]; 212 nM in assay [3]; 1670 nM in assay [4].

For `CCc1cc(Nc2ncc(-c3cn[nH]c3)c(Nc3ccccc3P(C)(C)=O)n2)c(OC)cc1N1CCC(N2CCN(CCOc3cccc4c3CN(C3CCC(=O)NC3=O)C4=O)CC2)CC1` (stereo not drawn) [Example E167], the concentration for half-maximal inhibition (IC50) in assay [1] is 37.8 nM; in assay [2] it was 3050 nM; in assay [5], 1.5 nM; in assay [3] it was 975 nM; in assay [4] it was 1100 nM.

Take `COc1cc(N2CCC(N3CCN(CCCCOc4cccc5c4CN(C4CCC(=O)NC4=O)C5=O)CC3)CC2)c(-c2cnn(C)c2)cc1Nc1ncc(Cl)c(Nc2ccccc2P(C)(C)=O)n1` (stereo not drawn) [Example E146]: the IC50 in assay [1] stood at 15.7 nM; in assay [2], 55.8 nM; in assay [5], 5.6 nM; in assay [3] it was 188 nM; in assay [4] it was 908 nM.

For `CCc1cc(Nc2ncc(Cl)c(Nc3ccccc3P(C)(C)=O)n2)c(OC)cc1N1CCC(N2CCN([C@H]3C[C@H](Oc4cc5c(cc4F)C(=O)N(C4CCC(=O)NC4=O)C5)C3)CC2)CC1` (stereo partly drawn) [Example E205], the IC50 is 6.87 nM in assay [1]; 51.7 nM in assay [2]; 9.9 nM in assay [5]; more than 4000 nM in assay [3]; 1050 nM in assay [4].

In the case of `CCc1cc(Nc2ncc(Cl)c(Nc3ccccc3P(C)(C)=O)n2)c(OC)cc1N1CCC(N2CCN(CCCCCc3ccc4c(N5CCC(=O)NC5=O)nn(C)c4c3)CC2)CC1` [Example E65], the IC50 in assay [1] is 35.3 nM; in assay [2] it was 267 nM; in assay [5], 15.8 nM; in assay [3], 1730 nM; in assay [4], 1060 nM.

Take `CCc1cc(Nc2ncc(Cl)c(Nc3ccccc3P(C)(C)=O)n2)c(OC(F)(F)F)cc1N1CCC(N2CCN(CCOc3cccc4c3CN(C3CCC(=O)NC3=O)C4=O)CC2)CC1` (stereo not drawn) [Example E152]: the IC50 was 7.63 nM in assay [1]; 227 nM in assay [2]; 16.2 nM in assay [5]; more than 4000 nM in assay [3]; 1470 nM in assay [4].

As to `CCc1cc(Nc2ncc(Cl)c(Nc3ccccc3P(C)(C)=O)n2)c(OC)cc1N1CCC(N2CCN(CCCCOc3cccc4c3CN(C3CCC(=O)NC3=O)C4=O)C(=O)C2)CC1` (stereo not drawn) [Example E87], the half-maximal inhibitory concentration (IC50) in assay [1] is 11.5 nM; in assay [2], 51.8 nM; in assay [5], 5.3 nM; in assay [3] it was more than 4000 nM; in assay [4], 3800 nM.

Consider `CCc1cc(Nc2ncc(Cl)c(Nc3ccccc3P(C)(C)=O)n2)c(Cl)cc1N1CCC(N2CCN(CCC#Cc3cccc4c3CN(C3CCC(=O)NC3=O)C4=O)CC2)CC1` (stereo not drawn) [Example E46], for which the IC50 amounted to 10.1 nM in assay [1]; 17.7 nM in assay [2]; 9.2 nM in assay [5]; 1200 nM in assay [3]; 1610 nM in assay [4].

Regarding `CCc1cc(Nc2ncc(Cl)c(Nc3ccccc3P(C)(C)=O)n2)c(OC)cc1N1CCC2(CCN(CCCCOc3ccc(NC4CCC(=O)NC4=O)cc3)CC2)CC1` (stereo not drawn) [Example E89], the IC50 in assay [1] came to 89.5 nM; in assay [2], 1040 nM; in assay [5] it was 79.9 nM; in assay [3] it was 1150 nM; in assay [4] it was 3650 nM.

As for `[2H]C([2H])([2H])C([2H])([2H])c1cc(Nc2ncc(Cl)c(Nc3ccccc3P(C)(C)=O)n2)c(OC)cc1N1CCC(N2CCN(CCOc3ccc4c(c3)CN(C3CCC(=O)NC3=O)C4=O)CC2)CC1` (stereo not drawn) [Example E221], the IC50 was 12.1 nM in assay [1]; 22.5 nM in assay [2]; 6.4 nM in assay [5]; 1750 nM in assay [3]; more than 4000 nM in assay [4].

With `CCc1cc(Nc2ncc(Cl)c(Nc3ccccc3P(C)(C)=O)n2)c(OC)cc1N1CCC(N2CCN([C@H]3C[C@@H](Oc4cc5c(cc4F)C(=O)N(C4CCC(=O)NC4=O)C5)C3)CC2)CC1` (stereo partly drawn) [Example E67], the IC50 in assay [1] turned out to be 4.09 nM; in assay [2] it was 20.6 nM; in assay [5], 4.4 nM; in assay [3] it was 306 nM; in assay [4], 2490 nM.

Take `CCc1cc(Nc2ncc(Cl)c(Nc3ccccc3P(C)(C)=O)n2)c(OC)cc1N1CCC(N2CCN(C(=O)CCC#Cc3cccc4c3CN(C3CCC(=O)NC3=O)C4=O)CC2)CC1` (stereo not drawn) [Example E50]: the IC50 came out at 21.9 nM in assay [1]; 58.1 nM in assay [2]; 12.6 nM in assay [5]; 1260 nM in assay [3]; 1350 nM in assay [4].

For the molecule `CCc1cc(Nc2ncc(-n3cccn3)c(Nc3ccccc3P(C)(C)=O)n2)c(OC)cc1N1CCC(N2CCN(CCOc3cccc4c3CN(C3CCC(=O)NC3=O)C4=O)CC2)CC1` (stereo not drawn) [Example E165], the half-inhibitory concentration (IC50) in assay [1] was 780 nM; in assay [2], more than 4000 nM; in assay [5] it was 4.2 nM; in assay [3], more than 4000 nM; in assay [4] it was more than 4000 nM.

On to `CCc1cc(Nc2ncc(Cl)c(Nc3ccccc3P(C)(C)=O)n2)cc(Cl)c1N1CCC(N2CCN(CCC#Cc3cccc4c3CN(C3CCC(=O)NC3=O)C4=O)CC2)CC1` (stereo not drawn) [Example E77], for which the IC50 in assay [1] amounted to 16.3 nM; in assay [2], 44.6 nM; in assay [5], 13.5 nM; in assay [3] it was 67.6 nM; in assay [4], 651 nM.

In the case of `CCc1cc(Nc2ncc(Cl)c(Nc3ccc(F)cc3P(C)(C)=O)n2)c(OC)cc1N1CCC(N2CCN(CCOc3cccc4c3CN(C3CCC(=O)NC3=O)C4=O)CC2)CC1` (stereo not drawn) [Example E124], the IC50 in assay [1] came to 6.8 nM; in assay [2], 106 nM; in assay [5], 106 nM; in assay [3], 3970 nM; in assay [4], 1270 nM.

For `CCc1cc(Nc2ncc(Cl)c(Nc3ccccc3P(C)(C)=O)n2)c(OC)cc1N1CCC(N2CCN(CC/C=C\c3cccc4c3CN(C3CCC(=O)NC3=O)C4=O)CC2)CC1` (stereo not drawn) [Example E37], the IC50 came out at 4.84 nM in assay [1]; 15.3 nM in assay [2]; 3.1 nM in assay [5]; 1070 nM in assay [3]; 1210 nM in assay [4].

For `CCc1cc(Nc2ncc(-n3cnc(C)c3)c(Nc3ccccc3P(C)(C)=O)n2)c(OC)cc1N1CCC(N2CCN(CCOc3ccc4c(c3)CN(C3CCC(=O)NC3=O)C4=O)CC2)CC1` (stereo not drawn) [Example E214], the half-inhibitory concentration (IC50) in assay [2] was more than 4000 nM; in assay [5] it was 3.4 nM; in assay [3] it was 616 nM; in assay [4], 1460 nM.

For the molecule `CCc1cc(Nc2ncc(Cl)c(Nc3ccccc3P(C)(C)=O)n2)c(OC)cc1N1CCC(N2CCN(CCCCOc3cccc4c3CN(C3CCC(=O)NC3=O)C4=O)CC2=O)CC1` (stereo not drawn) [Example E101], the IC50 in assay [2] came out at 51.6 nM; in assay [5] it was 6.8 nM; in assay [3] it was 1690 nM; in assay [4] it was 1440 nM.

In the case of `CCCc1cc(Nc2ncc(Cl)c(Nc3ccccc3P(C)(C)=O)n2)c(OC)cc1N1CCC(N2CCN(CCC#Cc3cccc4c3CN(C3CCC(=O)NC3=O)C4=O)CC2)CC1` (stereo not drawn) [Example E44], the IC50 in assay [2] was 17.9 nM; in assay [5], 6.6 nM; in assay [3] it was more than 4000 nM; in assay [4], 3490 nM.

`CCc1cc(N2CCC(N3CCN(CCCCOc4cccc5c4CN(C4CCC(=O)NC4=O)C5=O)CC3)CC2)c(CC)cc1Nc1nc(Nc2ccccc2P(C)(C)=O)c2cc[nH]c2n1` (stereo not drawn) [Example E153]: the IC50 in assay [2] was 65.9 nM; in assay [5], 26.3 nM; in assay [3], more than 4000 nM; in assay [4], more than 4000 nM.

On to `CCc1cc(Nc2ncc(Cl)c(Nc3ccccc3P(C)(C)=O)n2)c(OC)cc1N1CCC(N2CCN(CCOc3cccc4c3CN(C3CCC(=O)NC3=O)C4=O)CC2=O)CC1` (stereo not drawn) [Example E118], for which the IC50 in assay [2] was 112 nM; in assay [5], 6.3 nM; in assay [3], more than 4000 nM; in assay [4], 1340 nM.

For the origin of these results see patent publication US20240408216A1, “PROTEIN INHIBITOR OR DEGRADING AGENT, PHARMACEUTICAL COMPOSITION CONTAINING SAME AND PHARMACEUTICAL USE” (JING MEDICINE TECHNOLOGY (SHANGHAI) LTD., priority 2021, published 2024).
